Assay [1] concerns SK-Hep-1, a liver adenocarcinoma (hepatoma). Kind of assay: Cell Proliferation ELISA, BudR (colorimetric), hepatoma cells. The format is cell-based, human. Conditions: for suppression of hepatoma proliferation, adjuvant combined with ADR: adjuvant 0.5 mM AA equivalents, one application of ADR, two of adjuvant, prominent at ADR 0.003-0.03 micromolar; for inhibition of hepatoma proliferation, single agent: ADR 0.02-0.33 micromoles, furanone 0.001-0.01% compared at same absolute concentration. From the text: (§1) Calcium ascorbate (CA), calcium threonate (CT), 4-hydroxy-5-methyl-3(2H)-furanone (FR) and Ester-C (EC) are obtained from Inter-Cal Corporation, Prescott, Ariz., USA. Tissue culture grade Ascorbic acid (AA) is from Sigma Chemical Company, St. Louis, Mo., USA. The composition of calcium ascorbate (calcium di-(L-ascorbate) dihydrate) is made by sequentially dissolving the salt in sterile water to obtain master-stock solutions of equal strength (1% w/v). Aqueous solution of calcium ascorbate plus calcium threonate plus 4-hydroxy-5-methyl-3(2H)-furanone (CA/CT/FR) is prepared at ratio of 85/7.5/7.5. For comparative analysis, stock solutions containing identical ascorbic acid (AA) equivalents are used. All master stocks are stored at room temperature during the course of these procedures. From these, 10× strength working stocks are prepared by serial dilution on the day of use and are applied to cells in microtiter plates as described below.
Adriamycin (doxorubicin) is obtained from Sigma Chemical Company (St. Louis, Mo.). Stock solutions are made by dissolving adriamycin (ADR) in sterile water and DTIC in water or dilute acetic acid solution (0.01N). Stocks are stored frozen at −10 C. and thawed prior to use. Serial dilutions are made in sterile water to obtain 10× strength solutions and one tenth volume of this is applied to cells at the time of treatment.
Target human tumor-derived lines consist of SK-Hep-1, a liver adenocarcinoma ([…]) and Malme-3M, a malignant melanoma. All seed cultures are obtained from ATCC, Manassas, Va., USA and are propagated/maintained in serum-containing growth medium in a humidified incubator of 5% CO2/95% air. SK-Hep-1 cells are grown in Eagle's minimum essential medium (EMEM) in Earle's salts plus non-essential amino acids supplemented with 10% FBS plus antibiotics and Malme-3M cells are cultured in McCoy's medium supplemented with 15% fetal bovine serum (FBS) plus antibiotics.
For treatment, exponentially growing cells are seeded at a density of 1×10^4 cells per well of 96-well microtiter plate in 0.1-0.2 ml of growth medium. After overnight cell attachment at 37 C., duplicate wells are exposed to various treatments by direct application of one-tenth volume of 10× strength solution. For treatments involving chemotherapeutic agent, one-tenth volume of serial dilutions of adriamycin (0.0006-3.0 micromolar) are applied to wells followed by application of ascorbate-containing composition (adjuvant) or sterile water (control). The adjuvant treatment is repeated every other day or on the third day (as applicable) without change of growth medium. Untreated controls receive an equivalent amount of sterile water. After 2-3 treatments with adjuvant, cells are labeled with BudR as described below. (In some experiments, wells are refed an equal volume of growth medium prior to additional of BudR. This gives a higher amount of BrdU incorporation into DNA relative to no refluiding).
For DNA labeling, the following procedure is adapted and modified from the Cell Proliferation ELISA, BudR (Colorimetric) assay of Roche Diagnostics, Indianapolis, Ind., USA: Each treated well is exposed to one-tenth volume of 10× BrdU-containing medium and reincubated at 37 C. overnight (15-20 hrs.). One set of control wells is exposed to medium only (no BudR) to obtain an absorbance-control (substrate only) blank for the assay. After the labeling period, the culture medium is removed and the cells are fixed and DNA denatured in one step by adding FixDenat (30 min at RT). Then, FixDenat is removed, the anti-BrdU-peroxidase reagent is added and incubation continues for 90 min at RT. After removal of the latter, the plate is washed 3 times, followed by addition of substrate solution. The plate is kept at RT until color development became sufficient for photometric detection ([…]). At this time, reaction is stopped by addition to each well of 25 microliter 1M sulfuric acid followed by mixing for approximately 1 min on the shaker. […]
Background: ELISA stands for enzyme-linked immunosorbent assay.

In assay [2] the test system is malignant melanoma (Malme-3M). Kind of assay: Cell death detection ELISA, melanoma cells. The format is cell-based, human. The procedure:
(§2) Four human tumor cell types, shown previously to be sensitive to combinations of mineral ascorbate plus metabolites are evaluated. These lines consist of: (i) a liver hepatoma (SK-Hep-1), (ii) a malignant melanoma (Malme-3M), (iii) a neurobastoma (SK-N-MC) and (iv) a colon carcinoma (T84). Non-malignant cell types consist of: normal human liver (WRL 68), normal skin fibroblasts (Malme-3) and normal retinal epithelial cells (ARPE-19). The tumor-derived lines, normal liver and skin fibroblasts are obtained from the American Type Culture Collection (ATCC). The ARPE-19 cell line is a gift from a colleague at California Institute for Medical Research. Cells are grown and maintained in culture, in a humidified incubator of 5% CO2/95% air. […]
(§3) Subconfluent monolayers of 1-2 old, adherent cultures (seeded at a density of 10,000 cells per well in a 96-well plate) are exposed to 0.1 volume of serial dilutions (10× concentrated solutions) of the furanone and the plate is returned to the incubator. […] The supernatant (cytoplasmic lysate) is saved and in aliquot (20 microliters) was assayed for the presence of histone-DNA complexes (nucleosomal fragments) by photometric detection (absorbance at 405-410 nm) using cell death detection Elisa assay (Roche Diagnostics).

In assay [3] the test system is normal skin fibroblasts (Malme-3). Kind of assay: Cell death detection ELISA, normal skin fibroblasts. The format is cell-based, human. The following applies: two furanone preparations. The procedure: as §2, §3
The test system of assay [4] is Malme-3M, a malignant melanoma. Kind of assay: Cell Proliferation ELISA, BudR (colorimetric), melanoma cells. The following applies: furanone at 0.1% as printed; FIG. 21. The format is cell-based, human.
Excerpt: as §1, with “below. […]” for “below.”
For DNA labeling, the following procedure is adapted and modified from the Cell Proliferation ELISA, BudR (Colorimetric) assay of Roche Diagnostics, Indianapolis, Ind., USA: Each treated well is exposed to one-tenth volume of 10× BrdU-containing medium and reincubated at 37 C. overnight (15-20 hrs.). One set of control wells is exposed to medium only (no BudR) to obtain an absorbance-control (substrate only) blank for the assay. […]

For assay [5], the system named is normal human liver (WRL 68). Kind of assay: Cell death detection ELISA (histone-DNA complexes), normal liver cells. The format is cell-based. The following applies: 0.01-0.0001% furanone, three sequential treatments. The procedure: as §2, §3
The next assay deals with neurobastoma (SK-N-MC). As to the kind of experiment: Cell death detection ELISA, neuroblastoma cells. The format is cell-based, human. Conditions: up to max of 0.001% furanone. The method, then: as §2, §3
Assay [6] relates to liver hepatoma (SK-Hep-1). Kind of assay: Cell death detection ELISA, hepatoma cells. The format is cell-based, human. The procedure:
as §2, §3

Assay [7] deals with normal retinal epithelial cells (ARPE-19). As to the kind of experiment: Cell death detection ELISA, normal retinal epithelial cells. The following applies: up to max of 0.003% furanone. The format is cell-based, human. The procedure:
as §2, §3

A further assay relates to colon carcinoma (T84). Kind of assay: Cell death detection ELISA, colon carcinoma cells. The format is cell-based, human. Conditions: up to a max. of 0.01% furanone. The procedure:
as §2, §3

Where only a bound is given, the exact number is not on record here.

Take `O=C1O[C@H]([C@@H](O)CO)C(O)=C1O` [AA, Ascorbic acid, reference compound]: the “suppression of hepatoma proliferation, adjuvant combined with ADR” value in [1] is “greater suppression of hepatoma proliferation than ADR alone”.
As to `COc1cccc2c1C(=O)c1c(O)c3c(c(O)c1C2=O)C[C@@](O)(C(=O)CO)C[C@@H]3O[C@H]1C[C@H](N)[C@H](O)[C@H](C)O1` [ADR, Adriamycin (doxorubicin), reference compound], in [1], the “inhibition of hepatoma proliferation, single agent” value was “dose-dependent inhibition of hepatoma proliferation”.
On to calcium di-(L-ascorbate) dihydrate, for which the “improvement of anti-proliferation activity of ADR” value in [1] (0.033% adjuvant, low doses of ADR) is recorded as “consistently improve the anti-proliferation activity of low doses of ADR”. The “suppression of hepatoma proliferation, adjuvant combined with ADR” value was “greater suppression of hepatoma proliferation than ADR alone” in assay [1] (dihydrate) and “more effective than ascorbic acid” in assay [1] (listed as Calcium ascorbate, dihydrate).
As for `CC1=C(O)C(=O)CO1` [furanone, 4-hydroxy-5-methyl-3(2H)-furanone], the “minimal concentration required to produce 2-fold change in apoptosis rate” value in assay [2] is reported as 0.003%; in assay [6] (hepatoma cells) it was less than 0.001%. For the same compound, the increase in apoptosis in [3] is less than 0.3 log. Moreover, the “enhancement of the inhibitory effect of ADR in melanoma cells” value in [4] was “consistently enhances the inhibitory effect of ADR at all concentrations of the chemotherapeutic drug”. Further, the “reduction in cellular DNA synthesis compared to untreated control” value in assay [1] (0.01% furanone alone) is on record as roughly 4.6 fold. Moreover, the “enhancement of the inhibitory effect of ADR” value in assay [1] (ADR 0.007 micromolar, adjuvant 0.01%) is given as 7 fold. For the same compound, in assay [1], the “inhibition of hepatoma proliferation, single agent” value was “more effective in inhibiting hepatoma proliferation than either the triple ascorbate/metabolite mix or Ester-C®”. Moreover, the “minimal dose of furanone required to produce 2-fold enhancement of ADR inhibition” value in [1] (two independent experiments) is listed as roughly 0.0016%. Also, the “maximal change in cell-death rate” value in assay [5] was “less than 0.3 logs”. The “change in death rates” value (in the assay with neurobastoma (SK-N-MC); in assay [7]) was “does not elicit significant changes in death rates” in each case. Moreover, in assay [6] (furanone 0.001-0.01% (0.08-0.88 mM), three sequential treatments), the “cell death in hepatoma cells” value is “sharp rises in cell death”. In the assay with colon carcinoma (T84), the “change in rate of cellular apoptosis over untreated control” value is on record as less than 0.5 log.

Values taken from patent US20040242679A1, “Methods and compositions for potentiating cancer chemotherapeutic agents” (priority 2002, published 2004).
